Laboratory results as given in patent publication US7163957B2, “3-(Cyclopenten-1-yl)-benzyl-or 3-(cyclopenten-1-yl)-heteroarylmethyl-amine derivatives and use thereof as medicines for treating schizophrenia” (Pierre Fabre Medicament, priority 2002, dated 2007).
Structures can show the parent of a compound that is named as a salt.

Tests used:
5-HT1A receptors = target: T1, 5-HT1A receptors (Homo sapiens, UniProt P08908); test: Affinity for the 5-HT1A receptors, displacement of [3H]8-OH-DPAT; assay type: binding; conditions: for Ki: displacement of [3H]8-OH-DPAT, mean of at least 3 experiments, read-out: 5-HT1A pKi (converted)
T1 sequence (P08908 1-422): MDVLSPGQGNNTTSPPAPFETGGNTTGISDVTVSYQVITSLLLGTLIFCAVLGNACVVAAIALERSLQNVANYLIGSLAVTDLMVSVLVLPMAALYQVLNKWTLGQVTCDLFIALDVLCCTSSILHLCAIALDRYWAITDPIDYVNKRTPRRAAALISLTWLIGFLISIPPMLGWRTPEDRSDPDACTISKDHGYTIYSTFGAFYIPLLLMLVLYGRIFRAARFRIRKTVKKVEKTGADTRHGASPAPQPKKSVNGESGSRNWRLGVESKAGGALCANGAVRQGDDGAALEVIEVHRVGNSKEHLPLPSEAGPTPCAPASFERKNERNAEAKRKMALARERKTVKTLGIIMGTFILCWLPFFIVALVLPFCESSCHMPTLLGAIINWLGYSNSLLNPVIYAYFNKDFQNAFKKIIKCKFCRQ
Method: 2—Measurement of the affinity of the compounds of the invention for the 5-HT1A receptors.
The affinity in vitro of the compounds of the invention for the receptors of the 5-HT1A subtype was determined by measuring the displacement of [^3H]8-OH-DPAT (TRK 850; 160-240 Ci/mmol).
The pKi values, (pKi =−log Ki), are given in the form of the mean±SEM of at least 3 experiments.

D2 receptors [1] = target: D2 receptors (Homo sapiens, UniProt P14416); test: Affinity for the D2 receptors, displacement of (3H) YM-09151-2; assay type: binding; conditions: for Ki: displacement of (3H) YM-09151-2, mean of at least 3 experiments, read-out: D2 pKi (converted)
Chain of D2 receptors (Homo sapiens, UniProt P14416) (P14416 whole entry): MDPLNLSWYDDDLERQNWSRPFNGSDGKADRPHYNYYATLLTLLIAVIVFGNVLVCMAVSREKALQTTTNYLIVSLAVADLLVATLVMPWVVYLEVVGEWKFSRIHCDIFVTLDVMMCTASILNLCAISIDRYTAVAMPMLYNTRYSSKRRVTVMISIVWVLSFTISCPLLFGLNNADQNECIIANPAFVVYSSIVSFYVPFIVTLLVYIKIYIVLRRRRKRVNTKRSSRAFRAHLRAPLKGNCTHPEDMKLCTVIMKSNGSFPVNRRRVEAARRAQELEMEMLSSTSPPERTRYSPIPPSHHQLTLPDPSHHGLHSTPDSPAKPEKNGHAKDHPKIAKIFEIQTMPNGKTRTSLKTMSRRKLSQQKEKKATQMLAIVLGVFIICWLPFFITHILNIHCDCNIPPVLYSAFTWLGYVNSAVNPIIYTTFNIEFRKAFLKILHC
Description: 1—Measurement of the affinity of the compounds of the invention for the D2 receptors.
The pKi values, (pKi=−log Ki), are given in the form of the mean±SEM of at least 3 experiments.

D2 receptors [2] = test: Antagonist activity of the D2 receptors in vivo: inhibition of the behavior induced by methylphenidate; conditions: Rattus norvegicus, rats, oral route, read-out: Normalization ED50
Description: 3—Evaluation of the antagonist activity of the D2 receptors in vivo.

catalepsy = test: Cataleptigenic effects (catalepsy); assay type: in vivo; conditions: rats; for ED50: rat, in vivo, oral route; for cataleptigenic effects (in words): high doses (i.e. 40 mg/kg)
Description: 4—Evaluation of the cataleptigenic effects of the compounds of the invention.

melting point [°C] | affinity for the 5-HT1A receptors (in words) (5-HT1A receptors) | SMILES | ED50 (D2 receptors [2]) [mg/kg] | ED50 (catalepsy) [mg/kg] | also measured
146 | – | CC1(C)Cc2cccc(OCCNCc3cccc(C4=CCCC4)c3)c2O1 (as salt: fumarate) [Compound 1a, [2-(2,2-Dimethyl-2,3-dihydrobenzofuran-7-yloxy)ethyl]-(3-cyclopenten-1-ylbenzyl)amine] | – | – | –
141 | – | CC1(C)Cc2cccc(OCCNCc3cncc(C4=CCCC4)c3)c2O1 (as salt: fumarate) [Compound 1b, [2-(2,2-Dimethyl-2,3-dihydrobenzofuran-7-yl-oxy)ethyl]-(5-cyclopenten-1-ylpyridin-3-ylmethyl)amine] | – | – | –
126 | – | C1=C(c2cccc(CNCCOc3cccc4ccoc34)c2)CCC1 (as salt: fumarate) [Compound 1c, [2-(Benzofuran-7-yloxy)ethyl]-(3-cyclopenten-1-ylbenzyl)amine] | – | – | –
133 | – | Cc1cc2cccc(OCCNCc3cccc(C4=CCCC4)c3)c2o1 (as salt: fumarate) [Compound 1d, [2-(2-Methylbenzofuran-7-yloxy)ethyl]-(3-cyclopenten-1-ylbenzyl)amine] | – | – | –
118 | – | C1=C(c2cccc(CNCCOc3cccc4c3OCC4)c2)CCC1 (as salt: fumarate) [Compound 1e, [2-(2,3-Dihydrobenzofuran-7-yloxy)ethyl]-(3-cyclopenten-1-ylbenzyl)amine] | – | – | –
145 | – | CC1(C)Cc2cccc(OCCNCc3cccc(C4=C(F)CCC4)c3)c2O1 (as salt: fumarate) [Compound 1g, [2-(2,2-Dimethyl-2,3-dihydrobenzofuran-7-yl-oxy)ethyl]-[3-(2-fluorocyclopenten-1-yl)benzyl]amine] | – | – | –
180 | – | C1=C(c2cccc(CNCCOc3cccc4c3OC3(CC3)C4)c2)CCC1 (as salt: maleate) [Compound 1f] | – | – | –
– | high affinity | CC1(C)Cc2cccc(OCCNCc3cccc(C4=CCCC4)c3)c2O1 [Compound 1a, [2-(2,2-Dimethyl-2,3-dihydrobenzofuran-7-yloxy)ethyl]-(3-cyclopenten-1-ylbenzyl)amine] | 1.3 | > 40 | Ki (5-HT1A receptors): 6.31 nM; Ki (D2 receptors [1]): 0.316 nM; cataleptigenic effects (in words) (catalepsy): free of any cataleptigenic effects
– | high affinity | C1=C(c2cccc(CNCCOc3cccc4c3OC3(CC3)C4)c2)CCC1 [Compound 1f] | 0.63 | > 40 | Ki (5-HT1A receptors): 6.31 nM; Ki (D2 receptors [1]): 0.631 nM; cataleptigenic effects (in words) (catalepsy): free of any cataleptigenic effects
– | high affinity | CNc1cc(OC)c(C(=O)NC2CCN(Cc3ccccc3)C2C)cc1Cl (stereo not shown) [nemonapride, reference compound] | 1.5 | 5 | –

SMILES | melting point [°C] | affinity for the 5-HT1A receptors (in words) (5-HT1A receptors) | ED50 (D2 receptors [2]) [mg/kg] | ED50 (catalepsy) [mg/kg] | also measured
Cc1nc2n(c(=O)c1CCN1CCC(c3noc4cc(F)ccc34)CC1)CCCC2 [Risperidone, risperidone, reference compound] | – | low affinity | 6.5 | – | affinity for the D2 receptors (in words) (D2 receptors [1]): good affinity
O=C(CCCN1CCC(O)(c2ccc(Cl)cc2)CC1)c1ccc(F)cc1 [haloperidol, reference compound] | – | low affinity | 0.46 | 0.92 | –
